Data from paper PMC9574513 (The Journal of Biological Chemistry, 2022).
Positions count from the first letter of the chain named.

Legend:
PtKCS2 = biological target: T1, PtKCS2 (Populus trichocarpa, UniProt A0A2K1YQQ5); assay type: cell-based; conditions: inhibition; 30 °C, 4 days, yeast culture
T1 sequence (A0A2K1YQQ5 1-524): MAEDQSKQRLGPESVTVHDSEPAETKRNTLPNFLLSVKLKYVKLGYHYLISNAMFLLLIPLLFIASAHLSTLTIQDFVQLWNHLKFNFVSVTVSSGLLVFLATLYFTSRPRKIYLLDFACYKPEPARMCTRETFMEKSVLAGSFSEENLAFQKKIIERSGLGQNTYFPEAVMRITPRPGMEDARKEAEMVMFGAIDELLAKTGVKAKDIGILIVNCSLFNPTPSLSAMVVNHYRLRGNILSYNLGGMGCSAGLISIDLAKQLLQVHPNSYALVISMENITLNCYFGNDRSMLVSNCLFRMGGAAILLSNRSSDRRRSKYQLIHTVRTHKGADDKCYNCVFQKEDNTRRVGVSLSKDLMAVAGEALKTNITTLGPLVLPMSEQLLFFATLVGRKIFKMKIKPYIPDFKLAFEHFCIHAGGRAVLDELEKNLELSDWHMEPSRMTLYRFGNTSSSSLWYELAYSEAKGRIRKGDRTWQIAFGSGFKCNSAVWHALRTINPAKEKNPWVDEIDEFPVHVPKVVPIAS

PtKCS4 = biological target: T2, PtKCS4 (Populus trichocarpa, UniProt U7E0F5); assay type: cell-based; conditions: inhibition; 30 °C, 4 days, yeast culture
T2 sequence (U7E0F5 1-524): T1 sequence (A0A2K1YQQ5 1-524) with S94C, K137T, V139T, F144C, C283R

Row | SMILES | proportion of total VLC-FAMEs vs uninhibited control at 2 μM (PtKCS2) | proportion of total VLC-FAMEs vs uninhibited control at 2 μM (PtKCS4)
1 | CCc1cccc(CC)c1N(COC)C(=O)CCl [alachlor] | whereas alachlor and anilofos slightly reduced activity | whereas alachlor and anilofos slightly reduced activity
2 | CC(C)N(C(=O)COc1nnc(C(F)(F)F)s1)c1ccc(F)cc1 [flufenacet] | Flufenacet and fentrazamide had the greatest effect on reducing VLCFA elongation in all three KCSs | Flufenacet and fentrazamide had the greatest effect on reducing VLCFA elongation in all three KCSs
